Laboratory results reported in ChEMBL document CHEMBL1777702, “N⁴-[Alkyl-(hydroxyphosphono)phosphonate]-cytidine-new drugs covalently linking antimetabolites (5-FdU, araU or AZT) with bone-targeting bisphosphonates (alendronate or pamidronate)” (Bioorg Med Chem, 2011).

Assays:
[1] = system: SF-539; experiment: Growth inhibition of human SF539 cells assessed as cell growth at 10 uM after 48 hrs by SRB assay relative to control; assay type: functional; settings: SF-539, 48 h, read-out: Activity
[2] = system: RAW264.7; experiment: cells; settings: Mus musculus, RAW264.7, 72 h
Description: Cytotoxicity against mouse RAW264.7 cells after 72 hrs by resazurin assay

[3] = Binding affinity to 7 gram of hydroxyapatite at 246 mg followed by acidified with hydrochloric acid at pH 2 measured after 24 hrs by UV-spectrophotometer analysis; assay type: physicochemical; settings: pH 2, 24 h
[4] = Binding affinity to 7 gram of hydroxyapatite at 246 mg after 24 hrs by UV-spectrophotometer analysis; assay type: physicochemical
[5] = system: RAW264.7
Description: Cytotoxicity against mouse RAW264.7 cells after 24 hrs by resazurin assay

[6] = system: Malme-3M; experiment: Growth inhibition of human MALME-3M cells assessed as cell growth at 10 uM after 48 hrs by SRB assay relative to control; assay type: functional; settings: read-out: Activity
[7] = system: HL-60(TB); experiment: Growth inhibition of human HL-60(TB) cells assessed as cell growth at 10 uM after 48 hrs by SRB assay relative to control; assay type: functional; settings: HL-60, 48 h, read-out: Activity
[8] = system: MDA-MB-435; experiment: Growth inhibition of human MDA-MB-435 cells assessed as cell growth at 10 uM after 48 hrs by SRB assay relative to control; assay type: functional; settings: MDA-MB-435, 48 h, read-out: Activity
[9] = system: SNB-75; experiment: Growth inhibition of human SNB75 cells assessed as cell growth at 10 uM after 48 hrs by SRB assay relative to control; assay type: functional; settings: SNB-75, 48 h, read-out: Activity
[10] = Chemical stability of the compound in hydrochloric acid at pH 2; assay type: physicochemical; settings: buffer
[11] = Binding affinity to 5 gram of hydroxyapatite at 246 mg after 24 hrs by UV-spectrophotometer analysis; assay type: physicochemical
[12] = system: HOP-62; experiment: Growth inhibition of human HOP62 cells assessed as cell growth at 10 uM after 48 hrs by SRB assay relative to control; assay type: functional; settings: HOP-62, 48 h, read-out: Activity
[13] = system: RAW264.7; experiment: Selectivity ratio of IC50 for mouse RAW264.7 cells to IC50 for mouse LLC cells
[14] = system: EKVX; experiment: Growth inhibition of human EKVX cells assessed as cell growth at 10 uM after 48 hrs by SRB assay relative to control; assay type: functional; settings: read-out: Activity
[15] = system: NCI-H322M; experiment: Growth inhibition of human NCI-H322M cells assessed as cell growth at 10 uM after 48 hrs by SRB assay relative to control; assay type: functional; settings: read-out: Activity
[16] = Cytotoxicity against mouse LLC cells after 72 hrs by resazurin assay; assay type: functional, cell-based; settings: Lewis lung carcinoma
[17] = Cytotoxicity against mouse LLC cells after 24 hrs by resazurin assay; assay type: functional, cell-based, Lewis lung carcinoma
[18] = system: SF-268; experiment: Growth inhibition of human SF268 cells assessed as cell growth at 10 uM after 48 hrs by SRB assay relative to control; assay type: functional; settings: SF-268, 48 h, read-out: Activity
[19] = system: OVCAR-3; experiment: Growth inhibition of human OVCAR3 cells assessed as cell growth at 10 uM after 48 hrs by SRB assay relative to control; assay type: functional; settings: OVCAR-3, 48 h, read-out: Activity
[20] = system: CAKI-1; experiment: Growth inhibition of human Caki1 cells assessed as cell growth at 10 uM after 48 hrs by SRB assay relative to control; assay type: functional; settings: CAKI-1, 48 h, read-out: Activity
[21] = Mus musculus, Lewis lung carcinoma, 24 h, read-out: IC50

O=c1nc(NCCCC(O)(P(=O)([O-])O)P(=O)([O-])O)c(F)cn1[C@H]1C[C@H](O)[C@@H](CO)O1.[Na+].[Na+]
growth at 10 µM [1]: 95% | IC50 [2]: 25000 nM | Activity [3]: 74% | Activity [4]: 87% | IC50 [5]: Not Active | growth at 10 µM [6]: 89% | growth at 10 µM [7]: 62% | growth at 10 µM [8]: 87% | growth at 10 µM [9]: 87% | Stability [10]: Stable | Activity [11]: 41% | growth at 10 µM [12]: 93% | Ratio IC50 [13]: 167 | growth at 10 µM [14]: 82% | growth at 10 µM [15]: 89% | IC50 [16]: 150 nM | IC50 ([17]; lewis lung carcinoma): Not Active | growth at 10 µM [18]: 87% | growth at 10 µM [19]: 88% | growth at 10 µM [20]: 79%

NCCCC(O)(P(=O)(O)O)P(=O)(O)O
IC50 [16]: 2620 nM | IC50 [17, 21]: 430 nM

O=c1[nH]c(=O)n([C@H]2C[C@H](O)[C@@H](CO)O2)cc1F [FLOXURIDINE]
IC50 [2]: 30000 nM | Activity [4]: 15% | IC50 [5]: Not Active | IC50 [16]: 2000 nM | IC50 [17, 21]: 14200 nM
